Data on 23 compounds can be found in ChEMBL document CHEMBL1155978, “Identification of positron emission tomography ligands for NPY Y5 receptors in the brain” (Bioorg Med Chem Lett, 2009).

The target in data set [1] is T1, Neuropeptide Y receptor type 5 (Homo sapiens, UniProt Q15761).
T1 sequence (Q15761 whole entry): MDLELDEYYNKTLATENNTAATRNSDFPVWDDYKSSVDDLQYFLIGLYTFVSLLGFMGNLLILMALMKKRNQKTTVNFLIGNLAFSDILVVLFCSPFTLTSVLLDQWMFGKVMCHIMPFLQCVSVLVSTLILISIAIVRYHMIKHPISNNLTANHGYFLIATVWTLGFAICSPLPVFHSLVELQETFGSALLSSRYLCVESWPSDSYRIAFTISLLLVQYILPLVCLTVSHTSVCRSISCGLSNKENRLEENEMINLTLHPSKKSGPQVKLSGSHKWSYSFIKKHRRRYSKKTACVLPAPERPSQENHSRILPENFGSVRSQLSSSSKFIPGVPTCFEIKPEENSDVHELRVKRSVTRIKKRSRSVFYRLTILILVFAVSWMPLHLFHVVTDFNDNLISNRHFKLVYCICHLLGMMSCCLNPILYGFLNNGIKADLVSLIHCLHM
The data set is described as follows: Displacement of [125I]PYY from human recombinant NPY Y5 receptor expressed in mouse LMtk cells. The data set is classed as cell-based.

Data set [2] in a line: Lipophilicity, Log D at pH 7.4. Conditions: buffer.
The subject of the next data set is Rattus norvegicus. The experiment in a line: Plasma concentration in rat at 3 mg/kg, iv. Also: time not given here. The data set is classed as ADME, organism-based. More on the design: dose 3 mg/kg, route intravenous. The conditions noted are these: in vivo.
For another data set, the system named is Brain. The data set is described as follows: Drug level in rat brain at 3 mg/kg, iv. As to Drug uptake: time not given here. The class given is ADME, organism-based. More on the design: dose 3 mg/kg, route intravenous. Conditions: in vivo.
A further data set relates to Cerebrospinal fluid. The experiment in a line: Drug level in rat cerebrospinal fluid at 3 mg/kg, iv. Also: time not given here. The data set is classed as ADME, organism-based. More on the design: dose 3 mg/kg, route intravenous. The conditions noted are these: in vivo, read-out: Drug uptake.
Data set [3] is described as follows: Ratio of drug level in rat brain to plasma at 3 mg/kg, iv. More on the design: dose 3 mg/kg, route intravenous. The class given is ADME, organism-based.
Data set [4] can be described thus: Ratio of drug level in cerebrospinal fluid to brain of rat at 3 mg/kg, iv. The conditions noted are these: in vivo. On the set-up: dose 3 mg/kg, route intravenous. The data set is classed as ADME, organism-based, CSF/Brain.
For data set [5], the system named is LLC-PK1. The experiment in a line: Efflux ratio of permeability from […] side in human MDR1 gene transfected pig LLC-PK1 cells. The data set is classed as ADME, cell-based, Sus scrofa.
Data set [6] deals with LLC-PK1. The experiment in a line: Efflux ratio of permeability from […] side in mouse mdr1a gene transfected pig LLC-PK1 cells. The data set is classed as ADME, cell-based, Sus scrofa.
Data set [7] addresses T2, Neuropeptide Y receptor type 1 (Homo sapiens, UniProt P25929).
T2 sequence (P25929 whole entry): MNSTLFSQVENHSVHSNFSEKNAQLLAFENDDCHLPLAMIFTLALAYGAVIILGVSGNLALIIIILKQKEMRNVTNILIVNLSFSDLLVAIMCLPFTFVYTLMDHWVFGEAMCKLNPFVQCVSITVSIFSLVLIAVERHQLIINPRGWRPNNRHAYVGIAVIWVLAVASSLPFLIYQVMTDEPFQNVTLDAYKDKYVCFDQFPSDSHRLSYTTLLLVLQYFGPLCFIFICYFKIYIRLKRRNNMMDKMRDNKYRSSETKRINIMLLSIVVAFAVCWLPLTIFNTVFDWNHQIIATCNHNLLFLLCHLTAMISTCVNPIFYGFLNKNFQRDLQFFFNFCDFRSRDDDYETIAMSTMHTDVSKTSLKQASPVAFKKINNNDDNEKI
The experiment in a line: Inhibition of human NPY Y1 receptor.

Data set [8] addresses T3, Neuropeptide Y receptor type 2 (Homo sapiens, UniProt P49146).
T3 sequence (P49146 whole entry): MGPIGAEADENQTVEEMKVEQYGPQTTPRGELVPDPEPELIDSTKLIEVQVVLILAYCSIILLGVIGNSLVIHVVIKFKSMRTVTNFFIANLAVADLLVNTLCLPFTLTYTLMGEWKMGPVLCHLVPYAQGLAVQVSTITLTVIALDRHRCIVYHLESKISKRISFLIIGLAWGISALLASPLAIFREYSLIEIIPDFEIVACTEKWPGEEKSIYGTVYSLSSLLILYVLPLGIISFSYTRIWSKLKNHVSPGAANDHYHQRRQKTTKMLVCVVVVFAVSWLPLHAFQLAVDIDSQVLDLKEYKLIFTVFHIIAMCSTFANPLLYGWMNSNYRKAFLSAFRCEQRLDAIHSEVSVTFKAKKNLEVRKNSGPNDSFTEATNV
The experiment in a line: Inhibition of human NPY Y2 receptor.

The target in data set [9] is Neuropeptide Y receptor type 4 (Homo sapiens, UniProt P50391). The data set is described as follows: Inhibition of human NPY Y4 receptor.
Sequence of Neuropeptide Y receptor type 4 (P50391 whole entry): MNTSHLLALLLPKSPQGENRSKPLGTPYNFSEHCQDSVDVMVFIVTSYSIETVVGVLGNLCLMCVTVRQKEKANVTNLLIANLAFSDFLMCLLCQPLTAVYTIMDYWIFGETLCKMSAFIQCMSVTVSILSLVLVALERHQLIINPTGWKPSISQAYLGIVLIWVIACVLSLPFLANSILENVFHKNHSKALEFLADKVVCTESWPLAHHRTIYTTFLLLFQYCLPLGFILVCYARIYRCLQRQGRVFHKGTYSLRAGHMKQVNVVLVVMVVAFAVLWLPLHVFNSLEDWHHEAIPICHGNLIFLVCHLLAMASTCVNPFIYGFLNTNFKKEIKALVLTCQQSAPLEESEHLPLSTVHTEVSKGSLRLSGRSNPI

`O=C1O[C@]2(CC[C@H](C(=O)Nc3ncc(-c4ccc(F)cc4)cn3)CC2)c2ccncc21`: the concentration for half-maximal inhibition (IC50) (commonly the concentration that inhibits the measured activity by half) in [1] amounted to 2.2 nM.
On the same count and under the same terms, the figure for `O=C1O[C@]2(CC[C@H](C(=O)Nc3ncc(-c4ccccc4F)cn3)CC2)c2cccnc21` is 3 nM.
For `O=C1O[C@]2(CC[C@H](C(=O)Nc3ncc(-c4ccccc4F)cn3)CC2)c2ccncc21`, the IC50 in [1] was 1.5 nM; in [7], greater than 10000 nM; in data set [8] it was greater than 10000 nM; in [9], greater than 10000 nM. In data set [2], the log distribution coefficient (logD) (commonly the decadic logarithm of the distribution of all forms, ionised or not, between an organic phase and buffer at a given pH) is 2.79. Besides, the concentration is 3100 nM in the data set on Rattus norvegicus, 1550 nM in the data set on Brain (read-out: Cp) and 288 nM with Cerebrospinal fluid. Further, in data set [3], the concentration ratio (Kp) (in general, tissue or fluid exposure divided by exposure in the circulation) was 0.5. The Ratio in data set [4] is on record as 0.19; in the data set with LLC-PK1 [5] it was 1.11; with LLC-PK1 [6], 4.43.
Regarding `O=C1O[C@]2(CC[C@H](C(=O)Nc3ncc(-c4ccccc4)cn3)CC2)c2ccncc21`, the IC50 in data set [1] came to 2 nM.
Same read-out and setting: the figure for `O=C1O[C@]2(CC[C@H](C(=O)Nc3ncc(-c4ccccc4OCF)cn3)CC2)c2ccncc21` is 2.2 nM.
For `O=C1O[C@]2(CC[C@H](C(=O)Nc3ncc(-c4cccc(F)c4)cn3)CC2)c2cccnc21`, in [1], the IC50 was determined as 2.2 nM. Also, in data set [2], the logD was 2.48.
As to `O=C1O[C@]2(CC[C@H](C(=O)Nc3ncc(-c4cccc(OCF)c4)cn3)CC2)c2cccnc21`, the 50% inhibitory concentration (IC50) in data set [1] came out at 3.1 nM.
Regarding `O=C1O[C@]2(CC[C@H](C(=O)Nc3ncc(-c4cccc(CF)c4)cn3)CC2)c2cnccc21`, in data set [1], the half-maximal inhibitory concentration (IC50) came to 1.8 nM. In addition, the logD in [2] is 2.65. Also, the concentration was 1220 nM with Rattus norvegicus, 370 nM in the data set with Brain (read-out: Drug uptake) and 79 nM with Cerebrospinal fluid. Besides, the Kp in [3] is 0.3. For the same compound, the Ratio in data set [4] is 0.22; in the data set on LLC-PK1 [5], 1.69; in the data set with LLC-PK1 [6], 7.9.
In the case of `O=C1O[C@]2(CC[C@H](C(=O)Nc3ncc(-c4ccccc4)cn3)CC2)c2ccccc21`, the IC50 in data set [1] was determined as 0.64 nM. This compound also returned a logD in data set [2] of 3.73.
As to `O=C1O[C@]2(CC[C@H](C(=O)Nc3ncc(-c4ccccc4OCF)cn3)CC2)c2cccnc21`, the IC50 in [1] came out at 4.5 nM.
Take `O=C1O[C@]2(CC[C@H](C(=O)Nc3ncc(-c4ccccc4OCF)cn3)CC2)c2cnccc21`: in data set [1], the IC50 is 2.6 nM. The same compound displayed a log distribution coefficient (logD) in data set [2] of 2.71.
As for `O=C1O[C@]2(CC[C@H](C(=O)Nc3ncc(-c4cccc(CF)c4)cn3)CC2)c2cccnc21`, in [1], the IC50 was determined as 2.3 nM.
In the case of `O=C1O[C@]2(CC[C@H](C(=O)Nc3ncc(-c4cccc(F)c4)cn3)CC2)c2ccncc21`, the IC50 in data set [1] was 1.5 nM. This compound also came in with a logD in data set [2] of 2.78. Also, the concentration in the data set on Rattus norvegicus turned out to be 3450 nM; in the data set on Brain (read-out: Drug uptake) it was 1420 nM; with Cerebrospinal fluid it was 308 nM. Further, in [3], the partition ratio (Kp) is 0.41. Further, the figures for the Ratio (in data set [4]; in the data set on LLC-PK1 [5]; in the data set on LLC-PK1 [6]) were 0.22, 1.41 and 7.78, respectively.
On to `O=C1O[C@]2(CC[C@H](C(=O)Nc3ncc(-c4ccccc4F)cn3)CC2)c2cnccc21`, for which the half-inhibitory concentration (IC50) in data set [1] was determined as 1.8 nM. In data set [2], this compound had a logD of 2.79.
Taken in the same sequence, the figures for `O=C1O[C@]2(CC[C@H](C(=O)Nc3ncc(-c4ccccc4CF)cn3)CC2)c2cnccc21` were 2 nM and 2.54.
In the case of `O=C1O[C@]2(CC[C@H](C(=O)Nc3ncc(-c4cccc(F)c4)cn3)CC2)c2cnccc21`, the half-maximal inhibitory concentration (IC50) in data set [1] amounted to 1.8 nM.
On the same count and under the same terms, the figure for `O=C1O[C@]2(CC[C@H](C(=O)Nc3ncc(-c4ccc(F)cc4)cn3)CC2)c2cnccc21` is 2.7 nM.
Take `O=C1O[C@]2(CC[C@H](C(=O)Nc3ncc(-c4ccccc4)cn3)CC2)c2ncccc21`: in data set [1], the 50% inhibitory concentration (IC50) was 2.9 nM. The compound also registered a logD in data set [2] of 2.71.
Consider `O=C1O[C@]2(CC[C@H](C(=O)Nc3ncc(-c4cccc(OCF)c4)cn3)CC2)c2cnccc21`, for which the IC50 in data set [1] was 1.9 nM. Besides, the logD in [2] is 2.75. In addition, the concentration in the data set with Rattus norvegicus stood at 2040 nM; in the data set on Brain (read-out: Drug uptake), 740 nM; in the data set with Cerebrospinal fluid it was 95 nM. Besides, the Kp in data set [3] was determined as 0.37. Moreover, the results for the Ratio (in [4]; in the data set on LLC-PK1 [5]; with LLC-PK1 [6]) were 0.13, 1.37 and 8.23, respectively.
For `O=C1O[C@]2(CC[C@H](C(=O)Nc3ncc(-c4cccc(OCF)c4)cn3)CC2)c2ccncc21`, the IC50 in [1] is 1.8 nM. In data set [2], this compound registered a log distribution coefficient (logD) of 2.71. Moreover, the concentration with Rattus norvegicus was found to be 1500 nM; in the data set with Brain (read-out: Drug uptake) it was 150 nM; in the data set on Cerebrospinal fluid, 64 nM. In addition, the Kp in data set [3] was 0.11. Also, the Ratio turned out to be 0.42 in [4], 1.52 with LLC-PK1 [5] and 9.51 in the data set on LLC-PK1 [6].
For the compound `O=C1O[C@]2(CC[C@H](C(=O)Nc3ncc(-c4ccc(F)cc4)cn3)CC2)c2cccnc21`, in data set [1], the concentration for half-maximal inhibition (IC50) amounted to 7.5 nM.
With `O=C1O[C@]2(CC[C@H](C(=O)Nc3ncc(-c4ccccc4)cn3)CC2)c2cnccc21`, the half-inhibitory concentration (IC50) in [1] came out at 1.8 nM. The same compound showed a logD in data set [2] of 2.65.
The corresponding values for `O=C1O[C@]2(CC[C@H](C(=O)Nc3ncc(-c4ccccc4)cn3)CC2)c2cccnc21` are 2.1 nM and 2.32.
